The values below come from PMC3115495 (Bioorganic & medicinal chemistry letters, 2011).

Broadly, the Ki is a measure of affinity in units of concentration, obtained from inhibition or displacement.

The target of assay [1] is KOR-1 (Homo sapiens, UniProt P41145). The assay can be described thus: ^125I-opioid saturation studies in KOR-1/CHO cells. The class given is binding. The conditions noted are these: at the highest concentrations of radioligands used.
For assay [2], the target named is mu opioid receptor (MOR-1) (UniProt P42866). The assay can be described thus: radioligand binding.
Sequence of mu opioid receptor (MOR-1) (P42866 whole entry): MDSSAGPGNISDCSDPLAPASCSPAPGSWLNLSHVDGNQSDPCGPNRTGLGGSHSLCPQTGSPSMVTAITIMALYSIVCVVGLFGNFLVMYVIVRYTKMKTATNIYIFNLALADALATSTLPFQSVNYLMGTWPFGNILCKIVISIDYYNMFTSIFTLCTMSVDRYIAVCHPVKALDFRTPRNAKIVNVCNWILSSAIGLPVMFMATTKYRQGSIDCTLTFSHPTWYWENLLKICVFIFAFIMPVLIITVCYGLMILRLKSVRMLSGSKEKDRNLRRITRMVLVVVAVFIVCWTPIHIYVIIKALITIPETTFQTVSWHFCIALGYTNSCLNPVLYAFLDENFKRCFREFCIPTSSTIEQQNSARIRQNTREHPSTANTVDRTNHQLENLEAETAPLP

Sequence of KOR-1 (P41145 whole entry, species assumed): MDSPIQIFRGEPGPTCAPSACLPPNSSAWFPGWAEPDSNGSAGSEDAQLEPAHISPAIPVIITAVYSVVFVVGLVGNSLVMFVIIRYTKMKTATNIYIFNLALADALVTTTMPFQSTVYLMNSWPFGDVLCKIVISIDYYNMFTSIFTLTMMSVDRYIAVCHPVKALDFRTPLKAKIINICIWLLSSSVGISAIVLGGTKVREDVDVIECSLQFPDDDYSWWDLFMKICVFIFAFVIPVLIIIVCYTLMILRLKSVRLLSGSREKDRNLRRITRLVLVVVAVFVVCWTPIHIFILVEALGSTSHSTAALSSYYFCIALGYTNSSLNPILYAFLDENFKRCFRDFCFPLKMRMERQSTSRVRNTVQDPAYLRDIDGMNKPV

Turning to `CN1CC[C@]23c4c5ccc(O)c4O[C@H]2[C@H](NC(=O)c2cccc([125I])c2)CC[C@@]3(O)[C@H]1C5` [^125IBOxyA (20)], the “Specific binding in KOR-1/CHO cells” value in assay [1] is “No specific”.

Regarding “[-DAla^2,MePhe^4,Gly(ol)^5]enkephalin (peptide)”, in assay [2], the Ki turned out to be 1.55 nM.
